Experimental data: US20240229098A1, “BIOLUMINOGENIC ASSAY FOR DRUG-RESISTANCE BACTERIA DETECTION” (priority 2021, published 2024)
Entries after “also recorded” stand apart in the source; their conditions may differ.

Legend:
E. coli/TEM lysate = assay: Bioluminescence with bacterial lysate compared to intact bacteria, E. coli/TEM; assay type: cell-based, Escherichia coli; details: CHAPS lysis
E. coli/TEM = assay: Inhibitor test with E. coli/TEM and D-Bluco; details: D-Bluco 10 μM, no inhibitor
KPC-3 = KPC-3 (Klebsiella pneumoniae, UniProt Q9F663, H272Y); assay: Limit of detection of recombinant β-lactamase by bioluminescence (KPC-3); assay type: biochemical; details: 2 hours, room temperature; 3 SD of negative control
E. cloacae/AmpC = assay: RAPID BLI test, clinic isolate spiked into synthetic urine, E. cloacae/AmpC; details: E. cloacae/AmpC in synthetic urine, D-Bluco 10 μM
Method: The modified rapid BLI protocol is applied. The signal of D-Bluco in PBS was subtracted before plotting. The working concentration of D-Bluco was 10 μM. All the studies were duplicated at room temperature in PBS (pH=7.4). Statistical significance was calculated using the unpaired two-tailed Student's t test (** p<0.0021, *** p<0.0002, **** p<0.0001, for comparison with 10^5 cfu/mL E. coli) (** p<0.0021, **** p<0.0001, ns: not significant). RLU indicates relative light units. Dotted line represents 3SD of the negative control.
Bacteria was mixed with 0.5% CHAPS lysis buffer for 15 min, and then incubated with D-Bluco at room temperature for another 15 min. The resulted mixture was combined with assay buffer which contains MgCl2, CoA, ATP, and luciferase for immediate bioluminescent reading.
Clinic isolates representing different classes (class A: Enterobacter cloacae/IMI, E. coli/TEM, K. pneumoniae/KPC; class B: E. coli/NDM, and class C: E. cloacae/AmpC) were spiked into synthetic urine samples.

AmpC = assay: Limit of detection of recombinant β-lactamase by bioluminescence (AmpC); assay type: biochemical; details: 2 hours, room temperature; 3 SD of negative control
[1] = system: clinically bacteria isolates in urine samples; assay: RAPID BLI assay, summary for clinical bacteria isolates in urine samples; assay type: cell-based; details: in 30 mins
From the text: The source of the bioluminescence background emission in bioluminogenic pro-luciferin probes was investigated. In addition to trace amounts of free D-luciferin in the sample, pro-luciferin probes can be oxidized by luciferases due to the promiscuity of the enzyme […]. […] By combining BRET quenching and chemical caging, an ultrasensitive bioluminescent probe D-Bluco was developed that could detect as low as 10-18 moles of β-lactamase activity.

TEM-1 [2] = target: T1, TEM-1 (Escherichia coli, UniProt P62593); assay type: biochemical; design: made in house; details: 10 μM probe
Method: RLU indicates relative light units.
FIGS. 9A and 9B illustrates bioluminescent studies of D-Bluco and O-Bluco treating with various β-lactamases. 10 μM of Bluco, D-Bluco and O-Bluco incubated with 20 nM TEM-1 for 15 min in PBS at r.t. The bioluminescent signals for each compound was evaluated with or without the addition of TEM-1 by a luminator. […] The relative bioluminescent was calculated by removing background signal in PBS.
The bioluminescence emission from the released D-luciferin was measured. […] Also evaluated was whether there was interference between luciferase and β-lactamases in such dual enzyme reaction system.
The signal to background ratio for D-Bluco, O-Bluco, and Bluco was measured following the addition of the firefly luciferase (fLuc).
The caged luciferin probes were incubated with different concentrations of TEM-1 β-lactamase or IMP-1 carbapenemase (0.001-0.1 fmol) in PBS (pH=7.4) for 2 hr at 25° C. Then a mixture of luciferase (200 nM), ATP (2 mM), and MgCl2 (4 mM) was added, and bioluminescent signals were detected with a SpectraMax microplate reader or a luminator.

[3] = system: E. coli expressing OXA-48; assay: Clinical isolate spiked in synthetic urine, filtered and centrifuged, E. coli expressing OXA-48; assay type: cell-based, Escherichia coli; details: E. coli expressing OXA-48, 10 μM D-Bluco, an hour at 37° C., PBS pH 7.4
Method: FIGS. 11A-11C illustrate detection of clinical isolates spiked in urine with D-Bluco a) Workflow for clinical sample detection b) Bioluminescent response for different concentrations of S. marcescens (SME) or c) E. coli/OXA-48 spiked into synthetic urine samples following the incubation with D-Bluco (10 μM) at 37° C. for an hour. Bioluminescent signal was measured and compared to that of E. coli (10^6 c.f.u/mL).
Urinary tract infection (UTI) is a severe public health problem because of the high recurrence rates and increasing antimicrobial resistance. It is among the major cause of patient morbidity and health care expenditures for both men and women of all age groups, accounting for 1 million cases of nosocomial in USA annually and an estimate cost of 1.6 billion. As a proof-of-concept, we spiked different concentrations of clinic isolates into synthetic urine samples. E. coli expressing OXA-48 and S. marcescens (SME) were chosen as examples. S. marcescens, being an opportunistic pathogen, accounts for an average of 6.5% of all Gram negative infection in intensive Care Units. The spiked urine samples were filtered and centrifuged to collect the bacteria (FIG. 11A). The collected bacteria were then diluted in PBS (pH=7.4) and incubated with 10 μM D-Bluco for an hour at 37° C.

TEM-1 [4] = target: T1, TEM-1; assay: Limit of detection of recombinant β-lactamase by bioluminescence (TEM-1); assay type: biochemical; design: made in house; details: 2 hours, room temperature; 3 SD of negative control
firefly luciferase = target: T2, firefly luciferase (Photinus pyralis, UniProt P08659); assay: Background bioluminescence and oxidation of pro-luciferin probes on repeated addition of firefly luciferase; assay type: biochemical
T2 construct: purchased Promega E1701
Method: The initial bioluminescent background signal may come from residual D-luciferin present in the sample. High-performance liquid chromatography (HPLC) analysis could not detect any D-luciferin at a concentration below 0.1 μM. However, addition of firefly luciferase can efficiently detect and consume the residual free D-luciferin.
To further confirm the quenching effect of dabcyl in D-Bluco, another control, Am-Bluco, was prepared that is structurally similar to D-Bluco but with dabcyl replaced by a structure lacking the broad absorption between 400 and 530 nm (FIG. 1).

T1 sequence (P62593 24-286 limits assumed): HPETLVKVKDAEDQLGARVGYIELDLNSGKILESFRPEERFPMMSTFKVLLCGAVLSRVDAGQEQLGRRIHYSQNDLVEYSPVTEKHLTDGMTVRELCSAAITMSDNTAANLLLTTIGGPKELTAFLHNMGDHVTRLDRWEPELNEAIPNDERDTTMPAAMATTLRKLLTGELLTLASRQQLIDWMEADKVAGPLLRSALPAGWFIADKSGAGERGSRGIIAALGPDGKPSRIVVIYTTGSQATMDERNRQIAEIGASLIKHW
T2 sequence (P08659 whole entry): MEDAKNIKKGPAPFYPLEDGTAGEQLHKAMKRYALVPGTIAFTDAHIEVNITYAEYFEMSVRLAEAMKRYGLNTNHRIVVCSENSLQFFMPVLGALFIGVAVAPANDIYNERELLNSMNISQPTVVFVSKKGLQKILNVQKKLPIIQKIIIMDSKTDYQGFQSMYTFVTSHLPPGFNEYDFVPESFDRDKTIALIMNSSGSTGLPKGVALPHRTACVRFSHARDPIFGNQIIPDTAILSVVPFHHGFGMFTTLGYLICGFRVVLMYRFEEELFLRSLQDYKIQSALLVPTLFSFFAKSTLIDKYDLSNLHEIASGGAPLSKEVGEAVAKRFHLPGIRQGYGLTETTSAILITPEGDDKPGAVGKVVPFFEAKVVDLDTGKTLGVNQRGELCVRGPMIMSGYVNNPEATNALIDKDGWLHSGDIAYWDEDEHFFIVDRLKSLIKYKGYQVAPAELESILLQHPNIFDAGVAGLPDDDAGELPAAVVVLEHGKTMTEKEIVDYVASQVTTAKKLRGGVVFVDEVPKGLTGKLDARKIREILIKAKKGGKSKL
Sequence of KPC-3 (Q9F663 25-293 H272Y): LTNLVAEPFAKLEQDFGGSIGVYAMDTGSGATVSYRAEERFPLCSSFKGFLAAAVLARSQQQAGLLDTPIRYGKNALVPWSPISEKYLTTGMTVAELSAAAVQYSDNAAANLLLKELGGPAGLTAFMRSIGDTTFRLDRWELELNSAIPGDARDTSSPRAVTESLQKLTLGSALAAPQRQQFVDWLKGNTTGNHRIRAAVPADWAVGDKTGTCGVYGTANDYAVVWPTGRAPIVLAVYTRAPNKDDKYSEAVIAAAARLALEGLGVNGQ

In the case of `CN(C)c1ccc(/N=N/c2ccc(C(=O)NCCCCCC(=O)NC3C(=O)N4C(C(=O)O)=C(COc5ccc6nc(C7=N[C@@H](C(=O)O)CS7)sc6c5)C[S+]([O-])C34)cc2)cc1` (stereo partly drawn) [D-Bluco, 3-(((2-((S)-4-carboxy-4,5-dihydrothiazol-2-yl)benzo[d]thiazol-6-yl)oxy)methyl)-7-(6-(4-((E)-(4-(dimethylamino)phenyl)diazenyl)benzamido)hexanamido)-8-oxo-5-thia-1-azabicyclo[4.2.0]oct-2-ene-2-carboxylic acid 5-oxide], the “signal enhancement with lysate compared to intact bacteria” value (E. coli/TEM lysate) is reported as 52 fold, the “increase of bioluminescent intensity of E. coli/TEM-1 treated with probe over PBS” value (E. coli/TEM) is reported as 260 fold and the “limit of detection (LOD) of KPC-3 (all other β-lactamases)” value (KPC-3) is reported as 0.001 femtomole. The “concentration detected directly without culture” value (E. cloacae/AmpC) was 10^2 cfu/mL, the “limit of detection (LOD) of AmpC” value (AmpC) was 0.1 femtomole and the “sensitivity of RAPID BLI assay for clinical isolates in urine samples” value [1] was 10^2-10^3 cfu/mL. The “fold increase in bioluminescence emission upon TEM-1 treatment (turn-on ratio, signal with TEM-1 over signal without TEM-1)” value (TEM-1 [2]; TEM-1 20 nM, 15 min, PBS pH 7.4, r.t.) was 1420 fold, the “initial bioluminescent background signal without TEM-1” value (TEM-1 [2]; without TEM-1) was “significantly lower than that of Bluco; also recorded: lowest background signal” and the “concentration from which significant bioluminescence enhancement is seen” value [3] was 10^5 c.f.u/mL. For the same compound, the “limit of detection (LOD) of TEM-1 (all other β-lactamases)” value (TEM-1 [4]) was 0.001 femtomole, the “oxidation of probe incubated with firefly luciferase (mass spectrometry)” value (firefly luciferase; incubated with firefly luciferase) was “oxidized” and the “bioluminescence emission on additional batches of firefly luciferase” value (firefly luciferase; repeated firefly luciferase addition, no β-lactamase) was “no further bioluminescence emission was detected”.
